Test results published in US20190350907A1, “METHODS AND PHARMACEUTICAL COMPOSITIONS FOR REDUCING CD95- MEDIATED CELL MOTILITY” (INSERM (INSTITUT NATIONAL DE LA SANTÉ ET DE LA RECHERCHE …, priority 2017, published 2019).
Entries after “also recorded” stand apart in the source; their conditions may differ.

What was measured:
[1] = test system: activated PBLs; assay: CD95-mediated cell migration / endothelial transmigration of activated PBLs (Boyden chamber); assay type: cell-based, human; conditions: result in words
Procedure: FIG. 3. Drugs inhibit CD95-mediated Ca′ response and cell migration. A. Activated PBLs were loaded with FuraPE3-AM (1 μM) and pre-treated for 1 h with non-toxic concentrations of indicated compounds. T-cells were then stimulated with cl-CD95L (100 ng/mL; arrow). Ratio values (R) were normalized to pre-stimulated values (R0) to yield R/R0 values. Data represent means±the SD. B. Left panel: using Boyden chamber assay, cell migration of parental H9 cells and their counterpart lacking CD95 (CD95-KO) was assessed. Right panel: activated PBLs were pre-incubated in the presence or absence of the indicated drugs for 1 hour using non-toxic concentration and the CD95-mediated cell migration was assessed by Boyden chambers. C. Th17 cells were sorted from blood of healthy donors (peripheral blood mononuclear cell). FACS analyses showing the efficiency of Th17 (CCR6^+ CXCR3^−) cell sorting from healthy donors PBMCs. D. Th17 cells were pre-incubated in the presence or absence of the indicated drugs for 1 hour using non-toxic concentration and cell migration was assessed by Boyden chambers. After membrane hydration of Boyden chambers (Millipore, Molsheim, France) containing 8 μm pore membranes, 10^5 cells were added to the top chamber. The bottom chamber was filled with low serum (1%)-containing medium in the presence or absence of cl-CD95L (100 ng/ml). Cells were incubated for 24 h. To quantify invasion, cells were fixed with methanol and stained with Giemsa. Stained cells were then removed from the top-side of the membrane using a cotton-tipped swab and five representative pictures for each insert were taken of the invading cells from the reverse side. For each experiment, invading cells were lysed and absorbance at 560 nm was measured. Membranes (3 μm pore size) of a Boyden chamber were hydrated in sterile D-PBS (Millipore, Molsheim, France). Thereafter, activated T-lymphocytes (10^6) were added to the top chamber on a confluent monolayer of HUVEC in a low serum (1%)-containing medium. The bottom chamber was filled with low serum (1%)-containing medium in presence or absence of 100 ng/ml of cl-CD95L. In experiments using human sera, 500 μl of serum from either healthy donors or SLE patients was added to the lower chamber. Cells were cultured for 24 h at 37° C. in a 5% CO2, humidified incubator. Transmigrated cells were counted in the lower reservoir by flow cytometry using a standard of 2.5×10^4 fluorescent beads (Flow-count, Beckman Coulter).

[2] = target: T1, CD95/PLCγ1 interaction (Homo sapiens, UniProt P19174); assay: Renilla luciferase protein-fragment complementation assay (PCA), CD95-CID/PLCγ1-SH3; assay type: cell-based; conditions: result in words
T1 construct: The PLCγ1-SH3 domain (aa 790-851) (C); expressed in transfected cells; host or cells: HEK293T
T1 sequence (P19174 790-851): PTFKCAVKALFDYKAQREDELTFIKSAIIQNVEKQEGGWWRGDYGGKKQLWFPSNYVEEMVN
Procedure: FIG. 1. […] A. Schematic representation of the protein-fragment complementation assay used with CD95-CID or -DD fused to F2 and PLCγ1-SH3 or FADD-DD fused to F1 to identify inhibitors from the Prestwick library. The Renilla luciferase enzyme was divided into amino-terminal and carboxy-terminal fragments (yellow domains) and fused to the indicated domains. B. Compounds from the Prestwick library were tested against CD95/PLCγ1 or CD95/FADD PCA. […] Inhibition of CD95/FADD interaction is also assessed.
Light emission indicates refolding of the luciferase and reconstitution of enzyme activity through protein/protein interactions. […] Data represent means±SD of three independent experiments. […] Then, the indicated peptides fused with or without the cell-penetrating domain TAT were incubated at the indicated concentrations for 4 hrs and luminescence was assessed. Data represent means±SD of three independent experiments. […].
HEK293T cells were electroporated with 5 μg of DNA using BTM-830 electroporation generator (BTX Instrument Division, Harvard Apparatus) with 10 μg of DNA. Transfected cells were cultured for 24 hrs prior to protein complementation assay analyses as previously described (17). Briefly, transfected cells (10^6) were washed, resuspended in 100 μl PBS and deposited in OptiPlate-96 (PerkinElmer, Waltham, Mass., USA). Coelenterazine-h (5 μM, Sigma) was injected to each well and renilla luciferase activity was monitored for the first 10 seconds using Infinite200Pro (Tecan, Männedorf, Switzerland).
A peptide consisting of the cell-penetrating domain of TAT fused to CID (TAT-CID) binds the SH3 domain of PLCγ1 and thereby, prevents PLCγ1/CD95 interaction and the subsequent induction of the Ca^2+ response (16). […] Briefly, the Renilla luciferase enzyme was divided into two fragments (F1 and F2 fragments). […] Interaction of CD95 with PLCγ1 or FADD allows the reconstitution of RLuc and subsequent light emission (FIG. 1A). The chemical Prestwick library was screened against these PCAs (FIG. 1B). […] These molecules are designated CID inhibitors or CIDINH.

Row | Structure (SMILES) | effect on endothelial transmigration of PBLs [1] | effect on interaction of CD95 with PLCγ1 [2]
1 | O=C(O)c1cc(-c2ccc(F)cc2F)ccc1O [diflunisal, 5-(2,4-difluorophenyl)-2-hydroxybenzoic acid] | inhibited | efficiently prevented
2 | CC(C)c1nc(CN(C)C(=O)N[C@H](C(=O)N[C@@H](Cc2ccccc2)C[C@H](O)[C@H](Cc2ccccc2)NC(=O)OCc2cncs2)C(C)C)cs1 [ritonavir, 1,3-thiazol-5-ylmethyl N-[(2S,3S,5S)-3-hydroxy-5-[[(2S)-3-methyl-2-[[methyl-[(2-propan-2-yl-1,3-thiazol-4-yl)methyl]carbamoyl]amino]butanoyl]amino]-1,6-diphenylhexan-2-yl]carbamate] | inhibited | efficiently prevented; also recorded: prevents the PLCγ1 recruitment
